{"source": "patent US5922558A", "about": "“Methods and compositions for generating chemiluminescence with a peroxidase” (Lumigen, Inc., priority 1997, dated 1999)", "key": {"[1]": {"molecular_target": "T1, sheep anti-mouse-HRP conjugate (Armoracia rusticana, UniProt P00433)", "T1 construct": "purchased Boehringer-Mannheim", "T1 sequence (P00433 31-338 limits assumed)": "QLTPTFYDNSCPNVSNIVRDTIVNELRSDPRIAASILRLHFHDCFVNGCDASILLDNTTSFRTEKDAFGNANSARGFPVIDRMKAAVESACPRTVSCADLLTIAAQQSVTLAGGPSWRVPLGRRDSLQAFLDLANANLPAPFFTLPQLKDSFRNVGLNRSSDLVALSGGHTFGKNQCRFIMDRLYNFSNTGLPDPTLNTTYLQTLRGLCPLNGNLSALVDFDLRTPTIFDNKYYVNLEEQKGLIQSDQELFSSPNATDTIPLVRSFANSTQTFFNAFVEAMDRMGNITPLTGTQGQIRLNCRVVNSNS", "assay": "Western blot assay of β-galactosidase via an HRP-labeled antibody with chemiluminescent reagent, X-ray film", "details": "for Western blot result compared with reagent containing compound 5: both PVDF and nitrocellulose membranes", "excerpt": "Compositions of the present invention were used to detect and quantify a protein, β-galactosidase (β-gal) in a Western blot with an HRP-labeled antibody on a polyvinylidene difluoride (PVDF) membrane. Dilutions of β-gal containing 5000, 1000, 180, 30 and 5 pg, respectively, of protein were electrophoresed and transferred to PVDF membranes (Millipore, Bedford, Mass.). The membranes were blocked with 1% non-fat milk in T-TBS (0.05% Tween 20 in TBS; TBS is 50 mmol/L Tris-HCl, pH 7.4, 0.15 mol/L NaCl) and then reacted sequentially with a 1:1500 dilution of mouse anti-β-gal (Boehringer-Mannheim, Indianapolis) and 1:600 dilution of sheep anti-mouse-HRP conjugate (Boehringer-Mannheim). The membranes were washed in T-TBS and soaked for 3 min with a reagent comprising 0.055M tris buffer, pH 8.6 containing 0.66 mM acridan phosphate 5, 0.05 mM p-phenylphenol, 0.25 mM urea peroxide, 0.5 mM EDTA, 0.0125% Tween 20. The membranes were placed between transparent plastic sheets and exposed to X-ray film. […] The light produced led to intense emission which could be imaged for several hours.\nA Western blot assay according to the procedure in the previous example was performed using nitrocellulose membrane (Schleicher & Schuell, Keene, N.H.) as the solid phase. β-Galstandards in the range of 5000-5 pg were used. The detection reagent of the previous example permitted detection to be performed over several hours."}, "[2]": {"molecular_target": "T2, horseradish peroxidase (HRP) (Armoracia rusticana, UniProt P00433)", "T2 sequence (P00433 31-353)": "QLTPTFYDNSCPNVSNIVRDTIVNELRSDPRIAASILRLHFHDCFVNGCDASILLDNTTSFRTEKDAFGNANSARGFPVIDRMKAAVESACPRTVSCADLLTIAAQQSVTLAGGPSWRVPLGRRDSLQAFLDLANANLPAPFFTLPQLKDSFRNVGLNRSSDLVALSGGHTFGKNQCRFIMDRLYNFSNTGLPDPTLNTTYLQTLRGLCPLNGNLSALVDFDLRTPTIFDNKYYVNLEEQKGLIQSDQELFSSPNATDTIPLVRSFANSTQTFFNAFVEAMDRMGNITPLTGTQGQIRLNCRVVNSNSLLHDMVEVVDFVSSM", "assay": "Chemiluminescent detection of HRP in solution with reagent composition (tris buffer, urea peroxide, p-phenylphenol, EDTA, Tween 20)", "type": "biochemical", "procedure": "(§1) Reagent compositions comprising 0.055M tris buffer, pH 8.6, 0.25 mM urea peroxide, 0.05 mM p-phenylphe nol, 0.5 mM EDTA, 0.0125% Tween 20 and 3.3×10^-4 M acridan 5 were tested for production of chemiluminescence by reacting triplicate 100 μL aliquots with 10 μL of solutions of HRP in water containing between 1.4×10^-15 and 1.4×10^-19 moles of enzyme. […] The relation between chemiluminescence intensity at 15 min and amount of enzyme is depicted in FIG. 1.\nas §1, with “mM p-phenylphenol,” for “mM p-phenylphe nol,”, “acridan 13” for “acridan 5”, “intensity” for “intensity at 15 min”, “FIG. 2.” for “FIG. 1.”\nIn the manner of Example 21, compositions containing each of compounds 1-4 and 6-12 and 14 were reacted with HRP at 25° C. Each produced easily measurable chemiluminescence discernable above the background measured in the absence of HRP.\nThe chemiluminescence profile of acridan phosphate 5 reacted with HRP is depicted in FIG. 3. Reaction of 100 μL of the reagent composition of Example 20 with 1.4×10^-15 mol of HRP at 25° C. caused an instant rise in light emission which achieved maximum intensity in ca. 5 min.\n(§2) Reagent compositions comprising 0.01M tris buffer, pH 8.0, 0.5 mM urea peroxide, 0.1 mM p-phenylphenol, 1 mM EDTA, 0.025% Tween 20 and 5×10^-5 M acridan 37 were tested for production of chemiluminescence by reacting triplicate 100 μL aliquots with 10 μL of HRP in the range 1.4×10^-14 to 1.4×10^-19 moles. […] The relation between chemiluminescence intensity and amount of enzyme is depicted in FIG. 4.\nA reagent composition (40 μL) comprising 0.01M tris buffer, pH 8.0, 0.5 mM urea peroxide, 0.1 mM p-phenylphenol, 1 mM EDTA, 0.025% Tween 20 and 5×10^-5 M acridan 38 was reacted with 1 μL of a solution containing 1.4×10^-15 moles of HRP. […] The chemiluminescence time profile is depicted in FIG. 5.\nas §2, with “39” for “37”, “1.4×10^-15” for “1.4×10^-14”, “1.4×10^-20” for “1.4×10^-19”, “6.” for “4.”\nA reagent composition (100 μL) comprising 0.01M tris buffer, pH 8.0, 0.5 mM urea peroxide, 0.1 mM p-phenylphenol, 1 mM EDTA, 0.025% Tween 20 and 5×10^-5 M acridan 40 was reacted with 10 μL of a solution containing 1.4×10^-15 moles of HRP.\nA reagent composition (100 μL) comprising 0.01M tris buffer, pH 8.0, 0.5 mM urea peroxide, 0.1 mM p-phenylphenol, 1 mM EDTA, 0.025% Tween 20 and 5×10^-5 M acridan 50 was reacted with 2.5 μL of a solution containing 3.5×10^-16 moles of HRP. […] The chemiluminescence time profile is depicted in FIG. 7.\nReagent compositions comprising 0.055M tris buffer, pH 8.6, 0.25 mM urea peroxide, 0.05 mM p-phenylphenol, 0.5 mM EDTA, 0.0125% Tween 20, 1 mM CTAB and 6.6×10^-4 M acridan 43 were tested for production of chemiluminescence by reacting triplicate 100 μL aliquots with 10 μL of solutions of HRP containing between 1.4×10^-15 and 1.4×10^-19 moles of HRP. The relation between chemiluminescence intensity at 15 min and amount of enzyme is depicted in FIG. 8.\nReagent compositions comprising 0.055M tris buffer, pH 8.6, 0.25 mM urea peroxide, 0.05 mM p-phenylphenol, 0.5 mM EDTA, 0.0125% Tween 20, 1 mM CTAB and 6.6×10^-4 M compound 46 alone or with 50 μM DBA were tested for production of chemiluminescence by reacting a 100 μL aliquot with 3.5×10^-15 moles of HRP."}, "[3]": {"molecular_target": "T3, peroxidase (Armoracia rusticana, UniProt P00433)", "T3 construct": "isoenzyme C dominant", "T3 sequence (P00433 31-338)": "T1 sequence (P00433 31-338 limits assumed)", "assay": "Reaction with a peroxidase and a peroxide to produce chemiluminescence (general statements)", "type": "biochemical", "details": "with versus without CTAB", "procedure": "Another aspect of the present invention is the use of compounds of any of formulas I-VI in a method to produce chemiluminescence by reaction with a peroxidase. Reaction of a compound of formula I-VI with a peroxidase and a peroxide in an aqueous buffer solution produces easily detected chemiluminescence. Light intensity reaches a maximum level within minutes at room temperature when the reaction is conducted at alkaline pH. The reaction is conducted optionally in the presence of an enhancer. [drawing 15] Cationic surfactants, including quaternary ammonium salt compounds such as CTAB, are advantageous for use in increasing the level of chemiluminescence emitted when certain compounds of the present invention are reacted with a peroxidase and a peroxide."}, "[4]": {"details": "0.055M tris pH 8.6, 0.25 mM urea peroxide, 0.05 mM p-phenylphenol, 3.3×10^-4 M compound, HRP 1.4×10^-15 to 1.4×10^-19 moles"}, "[5]": {"details": "0.01M tris pH 8.0, 0.5 mM urea peroxide, 0.1 mM p-phenylphenol, 5×10^-5 M acridan"}}, "note": "“Also recorded” adds a separate entry of the source."}
{"smiles": "CN1c2ccccc2C(=C(Oc2ccccc2)OP(=O)(O)O)c2ccccc21", "note": "[Compound 1]", "values": [{"measurement": "Western blot result compared with reagent containing compound 5", "setting": "[1]", "value": "qualitatively the same result"}]}
{"smiles": "CN1c2ccccc2C(=C(OP(=O)(O)O)Sc2ccccc2)c2ccccc21", "note": "[Compound 5]", "values": [{"measurement": "production of chemiluminescence on reaction with HRP", "setting": "[2]; [4]", "value": "Light production ensued upon mixing"}, {"measurement": "time to maximum chemiluminescence intensity", "setting": "[2]; 100 μL reagent of Example 20 (0.055M tris pH 8.6, 3.3×10^-4 M acridan), 1.4×10^-15 mol HRP, 25° C.", "value": "ca. 5 min"}, {"measurement": "duration over which emission could be imaged, Western blot, PVDF membrane", "setting": "[1]; 0.66 mM compound, tris pH 8.6", "value": "several hours"}, {"measurement": "detection of β-gal in Western blot, PVDF membrane", "setting": "[1]; β-gal 5000, 1000, 180, 30 and 5 pg, 0.66 mM compound, 30 s exposure after 14 min", "value": "detection of β-gal; also recorded: detected"}]}
{"smiles": "CN1c2ccccc2C(=C(OP(=O)(O)O)Sc2ccc(Cl)cc2)c2ccccc21", "note": "[Compound 12]", "values": [{"measurement": "Western blot result compared with reagent containing compound 5", "setting": "[1]", "value": "qualitatively the same result"}]}
{"smiles": "CN1c2ccccc2C(=C(OP(=O)(O)O)Sc2ccc3ccccc3c2)c2ccccc21", "note": "[Compound 13]", "values": [{"measurement": "production of chemiluminescence on reaction with HRP", "setting": "[2]; [4]", "value": "Light production ensued upon mixing"}, {"measurement": "Western blot result compared with reagent containing compound 5", "setting": "[1]", "value": "qualitatively the same result"}]}
{"smiles": "CCOP(=O)(OCC)OC(Oc1ccccc1)=C1c2ccccc2N(C)c2ccccc21", "note": "[Compound 37]", "values": [{"measurement": "production of chemiluminescence on reaction with HRP", "setting": "[2]; [5]", "value": "Light production ensued upon mixing"}]}
{"smiles": "CCOP(=O)(OCC)OC(Sc1ccccc1)=C1c2ccccc2N(C)c2ccccc21", "note": "[Compound 38]", "values": [{"measurement": "production of chemiluminescence on reaction with HRP", "setting": "[2]; [5]", "value": "Light production ensued upon mixing"}, {"measurement": "time to maximum chemiluminescence intensity", "setting": "[2]; 40 μL reagent, 0.01M tris pH 8.0, 5×10^-5 M acridan, 1.4×10^-15 moles HRP, 25° C.", "value": 1, "unit": "min"}]}
{"smiles": "CC(=O)OC(Oc1ccccc1)=C1c2ccccc2N(C)c2ccccc21", "note": "[Compound 39]", "values": [{"measurement": "production of chemiluminescence on reaction with HRP", "setting": "[2]; [5]", "value": "Light production ensued upon mixing"}, {"measurement": "time to maximum chemiluminescence intensity", "setting": "[2]; 100 μL reagent, 0.01M tris pH 8.0, 5×10^-5 M acridan, HRP 1.4×10^-15 to 1.4×10^-20 moles", "value": 30, "unit": "min"}]}
{"smiles": "CC(=O)OC(Sc1ccccc1)=C1c2ccccc2N(C)c2ccccc21", "note": "[Compound 40]", "values": [{"measurement": "production of chemiluminescence on reaction with HRP", "setting": "[2]; [5]", "value": "Light production ensued upon mixing"}, {"measurement": "time to maximum chemiluminescence intensity", "setting": "[2]; 100 μL reagent, 0.01M tris pH 8.0, 5×10^-5 M acridan, 1.4×10^-15 moles HRP", "value": 7, "unit": "min"}]}
{"smiles": "CC(=C(OP(=O)(O)O)Sc1ccccc1)c1ccc2cc(O)ccc2c1", "note": "[Compound 43]", "values": [{"measurement": "change of light intensity when CTAB was included in the reaction mixture", "setting": "[3]", "value": "increased more than ten-fold"}]}
{"smiles": "O=P(O)(O)OC(Sc1ccccc1)=C(c1ccccc1)c1ccccc1", "note": "[Compound 46]", "values": [{"measurement": "effect of triplet energy acceptor DBA on chemiluminescence", "setting": "[2]; 0.055M tris pH 8.6, 1 mM CTAB, 6.6×10^-4 M compound alone or with 50 μM DBA, 3.5×10^-15 moles HRP", "value": "enhancement of chemiluminescence"}, {"measurement": "change of light intensity when CTAB was included in the reaction mixture", "setting": "[3]", "value": "increased more than ten-fold"}]}
{"smiles": "COC(Sc1ccccc1)=C1c2ccccc2N(C)c2ccccc21", "note": "[Compound 50]", "values": [{"measurement": "production of chemiluminescence on reaction with HRP", "setting": "[2]; [5]", "value": "Light production ensued upon mixing"}, {"measurement": "time to maximum chemiluminescence intensity", "setting": "[2]; 100 μL reagent, 0.01M tris pH 8.0, 5×10^-5 M acridan, 3.5×10^-16 moles HRP, 25° C.", "value": 7, "unit": "min"}]}
